Format in all cases: in vivo
The test system of one assay is 5-HT. In words: KONZETT DATA, 5-HT. The conditions noted are these: spasmogen 5-HT.
A further assay has as its system Hist. In words: KONZETT DATA, Hist. The conditions noted are these: spasmogen Hist.
The next assay deals with Ach. In words: KONZETT DATA, Ach. The conditions noted are these: spasmogen Ach.

The structures appear in SMILES notation.

Consider `CCCCCC(C)(O)/C=C/C1C(O)CC(=O)C1C/C=C\CCCCO` (racemic) [dl-1,11,15-trihydroxymethyl-9-oxo-15-methyl-5-cis-13-trans prostadiene], for which the “5-HT (ED50 g/kg)” value with 5-HT is 0.0083 g/kg. Moreover, the “Hist (ED50 g/kg)” value with Hist worked out at 0.00075 g/kg. In addition, the “Ach (ED50 g/kg)” value in the assay with Ach was determined as 0.0043 g/kg.
